Biological target: T1, Tyrosine-protein kinase receptor TYRO3 (Homo sapiens, UniProt Q06418)
T1 sequence (Q06418 whole entry): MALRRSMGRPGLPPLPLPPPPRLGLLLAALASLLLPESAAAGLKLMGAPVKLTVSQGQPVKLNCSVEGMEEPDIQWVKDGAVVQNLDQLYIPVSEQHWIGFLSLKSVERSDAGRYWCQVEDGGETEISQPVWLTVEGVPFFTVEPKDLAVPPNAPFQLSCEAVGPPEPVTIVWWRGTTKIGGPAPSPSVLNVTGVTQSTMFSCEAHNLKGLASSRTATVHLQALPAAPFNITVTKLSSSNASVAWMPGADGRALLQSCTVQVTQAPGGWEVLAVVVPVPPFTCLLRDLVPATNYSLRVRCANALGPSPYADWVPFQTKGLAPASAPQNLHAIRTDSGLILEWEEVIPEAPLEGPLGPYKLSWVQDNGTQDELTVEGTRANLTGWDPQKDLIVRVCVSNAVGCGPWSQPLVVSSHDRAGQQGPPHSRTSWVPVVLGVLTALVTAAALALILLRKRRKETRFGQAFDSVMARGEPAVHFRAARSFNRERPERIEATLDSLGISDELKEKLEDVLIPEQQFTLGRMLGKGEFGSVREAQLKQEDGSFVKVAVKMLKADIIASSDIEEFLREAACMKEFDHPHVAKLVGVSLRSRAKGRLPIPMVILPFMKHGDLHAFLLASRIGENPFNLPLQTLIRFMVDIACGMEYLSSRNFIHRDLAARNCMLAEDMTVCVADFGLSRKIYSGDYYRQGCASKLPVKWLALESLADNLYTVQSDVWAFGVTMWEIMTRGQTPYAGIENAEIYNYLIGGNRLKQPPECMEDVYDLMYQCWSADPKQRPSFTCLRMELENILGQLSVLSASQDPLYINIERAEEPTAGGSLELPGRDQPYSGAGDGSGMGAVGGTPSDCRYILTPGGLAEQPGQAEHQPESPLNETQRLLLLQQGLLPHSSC
Experiment: TAM Enzymatic Assay
Protocol: The kinase assay buffer contained 50 mM HEPES, pH7.5, 10 mM MgCl2, 1 mM EGTA, 0.01% NP-40 and 2 mM DTT. 0.1 ul test compounds dissolved in DMSO were transferred from compound plates to white 384-well assay plates (Greiner […] plates). The final concentration of DMSO was 1.25%. Enzyme solutions of 5.1 nM phosphor-Axl, or 0.0625 nM c-Mer (Carna Biosciences, 08-108), or 0.366 nM Tyro3 (Life Technologies, PR7480A) were prepared in assay buffer. A 1 mM stock solution of peptide substrate Biotin-[…]-amide SEQ ID NO: 1 (Quality Controlled Biochemicals, MA) dissolved in DMSO was diluted to 1 uM in assay buffer containing 2000 uM ATP. 4 ul enzyme solution (or assay buffer for the enzyme blank) was added to the appropriate wells in each plate, and then 4 ul/well substrate solution was added to initiate the reaction. The plate was protected from light and incubated at room temperature for 60 min. […] The plate was incubated for 1 h at room temperature, and HTRF (homogenous time resolved fluorescence) signal was measured on a PHERAstar FS plate reader (BMG labtech). Percentage of inhibition was calculated for each concentration and IC50 value was generated from curve fitting with GraphPad Prism software.

## CC(C)C(=O)N1CCC(c2cc(-c3ccc(NC(=O)c4cn(C(C)C)c(=O)n(-c5ccccn5)c4=O)cc3)c3c(N)ncnn23)CC1 [US11241438, Compound I]
  IC50: 55 nM

Reference: BindingDB's records for patent US11241438 (Incyte Corporation, 2022)
